Literature values, collected in publication PMC5559489 (Scientific Reports, 2017).

Assays:
[1] = system: A(H1N1)pdm2009 clinical isolates with H275Y mutation; conditions: cited from earlier work
[2] = system: A(H1N1)pdm09 isolates containing NA H275Y and I223R; conditions: cited from earlier work

CCOC(=O)C1=C[C@@H](OC(CC)CC)[C@H](NC(C)=O)[C@@H](N)C1 [oseltamivir, Oseltamivir]
decrease of sensitivity compared to wild-type [1]: 1466 fold
decreased susceptibility to oseltamivir [2]: 246 fold
